Data: US6572880B2, “Methods and transdermal compositions for pain relief” (priority 1996, dated 2003)
“Also recorded” adds a separate entry of the source. Where a name gives a salt, the structure may show the parent alone.

What was measured:
[1] = patient-reported pain relief after transdermal application to site of pain; type: in vivo, human; details: for overall assessment of pain relief when administered transdermally: conclusion from the patient results
Excerpt: Compositions according the examples 45 through 47, 53, 55 were transdermally applied to numerous patients, for the purpose of treating pain including as described in other examples herein, with the results summarized in Table I below.

[2] = in vivo
Experimental: A dosage of 40 mg per day was self-administered by a patient by application to the skin, for a period of at least 1 hour.
Sertraline (Zoloft) gel was prepared, according to the procedures of example 9. A dosage of 100 mg per day was self-administered by a patient by application to the skin, for a period of at least 1 hour.
A dosage of 20 mg per day was self-administered by a patient by application to the skin, for a period of at least 1 hour.
Carbamazepine (Tegretol) gel was prepared, according to the procedures of example 4. A dosage of 400 mg per day was self-administered by a patient by application to the skin, for a period of at least 1 hour.
(§1) Carbamazepine (Tegretol) gel was prepared, according to the procedures of example 4. A dosage of 200 mg per day was self-administered by a patient by application to the skin, for a period of at least 1 hour.
Sertraline (Zoloft) gel was prepared, according to the procedures of example 9. A dosage of 50 mg per day was self-administered by a patient by application to the skin, for a period of at least 1 hour.
as §1
A dosage of 100 mg per day was selfadministered by a patient by application to the skin, for a period of at least 1 hour.
A dosage of 80-160 mg per day was self administered by a person by application to the skin, for a period of at least 1 hour. […] The dosage was then increased to 160 mg per day and administered by the same method.
A dosage of 80-160 mg/day was self administered by a person by application to the skin, for a period of at least 1 hour. […] The dosage was then increased to 160 mg per day and administered by the same method.
A dosage of 500-1000 mg was self administered by two male patients. Administration was by application to the skin, for a period of at least one hour.

[3] = skin irritation and side effects reported on transdermal administration; type: in vivo, human; details: for overall assessment of side effects when administered transdermally: conclusion from the patient results
Experimental: Preferably, a gel preparation is applied to the skin at the site or sites of pain. Patients can be evaluated by means of a structured evaluation form, e.g., completed at a frequency of at least one time per week. Evaluation of patients are for the present symptoms as well as any side effects from currently administered medications. This makes it possible to note changes on an ongoing basis.
Patients in the examples above were evaluated by means of a structured evaluation form depicted in FIG. 1, which was completed at a frequency of at least one time per week for each patient receiving transdermal medication according to the present invention. The patients were evaluated both for all present psychiatric symptoms as well as any side effects from currently-administered medications.

[4] = blood serum; cited from earlier work
[5] = cited from earlier work
[6] = summary of Table I, best result per patient

| Structure (SMILES) | overall assessment of pain relief when administered transdermally [1] | transdermal absorption as judged from blood level [2] | overall assessment of side effects when administered transdermally [3] | solubility in water [5] | typical reference levels [4] | other results |
| --- | --- | --- | --- | --- | --- | --- |
| CN(C)CCC=C1c2ccccc2CCc2ccccc21 [amitriptyline] | limited pain relief | – | – | – | – | – |
| NC(=O)N1c2ccccc2C=Cc2ccccc21 [Carbamazepine] | positive effects | good absorption | appears to cause a rash in at least some patients | practically insoluble | – | typical therapeutic levels / therapeutic reference range [4]: 4 to 10 µg/mL; solubility in alcohol and in acetone [5]: soluble |
| COc1ccccc1OCC(O)CO (centres unmarked) [Guaifenesin] | benefit as an adjunctive treatment, of painful spasticity | – | – | – | – | – |
| Fc1ccc([C@@H]2CCNC[C@H]2COc2ccc3c(c2)OCO3)cc1 [Paroxetine hydrochloride] | – | – | – | – | 49 ± 26 ng/mL | – |
| NCC1(CC(=O)O)CCCCC1 [Gabapentin] | – | – | free of side effects | – | – | – |
| CN(C)CCC=C1c2ccccc2COc2ccccc21 [doxepin] | effective pain relief medication | – | substantially free of side effects | – | – | overall assessment of pain relief when administered transdermally ([1]; listed as Doxepin): about three times the positive response rate; also recorded: substantially more effective than amitriptyline; percent reported pain relief: Major [1, 6]: 23.1%; percent reported pain relief: Mild [1, 6]: 7.7%; percent reported pain relief: Mild-moderate [1, 6]: 7.7%; percent reported pain relief: Total [1, 6]: 7.7%; percent reported pain relief: moderate [1, 6]: 53.8% |
| CCCC(CCC)C(=O)O [Valproic acid] | – | do not appear to be absorbed well or reliably | – | – | – | skin irritation ([3]; application to the skin): appears to cause skin irritation in some patients; typical therapeutic levels / therapeutic reference range [4]: 50 to 150 µg/mL |
| CN[C@H]1CC[C@@H](c2ccc(Cl)c(Cl)c2)c2ccccc21 [Sertraline hydrochloride] | – | do not appear to be absorbed well or reliably | – | slightly soluble | 30 to 200 ng/mL | solubility in ethanol [5]: sparingly soluble; solubility in isopropyl alcohol [5]: slightly soluble |
| CNCCC(Oc1ccc(C(F)(F)F)cc1)c1ccccc1 (centres unmarked) [Fluoxetine hydrochloride] | – | – | – | – | 50 to 480 ng/mL | – |
| CC(NC(C)(C)C)C(=O)c1cccc(Cl)c1 (centres unmarked) [Buproprion] | – | poor or equivocal absorptions and results | – | highly soluble | – | – |
